Experimental data taken from US6361788B1, “Synergistic biocide composition” (Thor Chemie GmbH, priority 1997, dated 2002).

What was measured:
Assay type in all cases: cell-based
Conditions in all cases: for growth of the microorganism: MIT ppm = row head c0
Pseudomonas putida = experiment: MIC and synergy of MIT and BIT in Müller-Hinton broth, 48 h; for growth of the microorganism: key: growth of the microorganism took place (symbol '+'); or not (symbol '−')
Description: (§1) The synergy index is calculated according to the method of F. C. Kull et al., Applied Microbiology, Vol. 9 (1961), p. 538. Here the synergy index is calculated using the following formula:
(§2) Synergy index SI=Qa/QA+Qb/QB.
The synergy of the two active substances MIT and BIT against the microorganism Pseudomonas putida is shown as in Example 1.
The test batches again contained a Müller-Hinton broth as a nutrient medium. The cell density was 10^6 cells/mL. The incubation time was 48 h at 25° C. Each sample was incubated on an incubation shaker at 120 rpm.

Escherichia coli = experiment: MIC and synergy of MIT and BIT in Müller-Hinton broth, 72 h; for growth of the microorganism: key: growth of the microorganism took place (symbol '+'); or not (symbol '−')
Description: For this purpose, aqueous mixtures were produced with various concentrations of 2-methylisothiazolin-3-one (MIT) and 1,2-benzisothiazolin-3-one (BIT) and the activity of these mixtures on Escherichia coli (International Mycological Institute, Strain No. IMI 362054) was tested.
In addition to the biocide component and water, the aqueous mixtures contained a nutrient medium, namely a Müller-Hinton broth (commercial product “Merck No. 10393”). The cell density of Escherichia coli was 10^6 cells/mL. The incubation time was 72 h at 25° C. Each sample was incubated on an incubation shaker at 120 rpm.
as §1, §2
When the synergy index has the value 1, this means that there is an addition of the activity of the two biocides. When the synergy index has a value of less than 1, this means that a synergy of the two biocides exists.

Klebsiella pneumoniae = experiment: as above; for growth of the microorganism: key: growth of the microorganism took place (symbol '+'); or not (symbol '−')
Description: as §1, §2
The synergy of the two active substances MIT and BIT against the microorganism Klebsiella pneumoniae is shown as in example 1.
The test batches again contained a Müller-Hinton broth as a nutrient medium. The cell density was 10^6 cells/mL. The incubation time was 72 h at 25° C. Each sample was incubated on an incubation shaker at 120 rpm.

[1] = BIT share of the BIT/MIT mixture at MIC, 72 h

O=c1[nH]sc2ccccc12 [BIT, 1,2-benzisothiazolin-3-one]
60 ppm: MIC at Total concentration BIT + MIT Qa + Qb (Pseudomonas putida; 48 h) | MIC at BIT concentration Qa (Pseudomonas putida; BIT share of the BIT/MIT mixture at MIC, 48 h) | MIC value (Pseudomonas putida; used alone, 48 h at 25° C.)
+: growth of the microorganism (Pseudomonas putida; BIT 0.5 ppm, 48 h) | growth of the microorganism (Pseudomonas putida; BIT 1 ppm, 48 h) | growth of the microorganism (Pseudomonas putida; BIT 2.5 ppm, 48 h) | growth of the microorganism (Pseudomonas putida; BIT 5 ppm, 48 h) | growth of the microorganism (Pseudomonas putida; BIT 7.5 ppm, 48 h) | growth of the microorganism (Pseudomonas putida; BIT 10 ppm, 48 h) | growth of the microorganism (Pseudomonas putida; BIT 15 ppm, 48 h) | growth of the microorganism (Pseudomonas putida; BIT 20 ppm, 48 h) | growth of the microorganism (Pseudomonas putida; BIT 25 ppm, 48 h) | growth of the microorganism (Pseudomonas putida; BIT 30 ppm, 48 h) | growth of the microorganism (Pseudomonas putida; BIT 40 ppm, 48 h) | growth of the microorganism (Pseudomonas putida; BIT 50 ppm, 48 h) | growth of the microorganism (Escherichia coli; BIT 1 ppm, 72 h) | growth of the microorganism (Escherichia coli; BIT 2.5 ppm, 72 h) | growth of the microorganism (Escherichia coli; BIT 5 ppm, 72 h) | growth of the microorganism (Escherichia coli; BIT 7.5 ppm, 72 h) | growth of the microorganism (Escherichia coli; BIT 10 ppm, 72 h) | growth of the microorganism (Escherichia coli; BIT 12.5 ppm, 72 h) | growth of the microorganism (Escherichia coli; BIT 15 ppm, 72 h) | growth of the microorganism (Escherichia coli; BIT 17.5 ppm, 72 h) | growth of the microorganism (Escherichia coli; BIT 20 ppm, 72 h) | growth of the microorganism (Klebsiella pneumoniae; BIT 1 ppm, 72 h) | growth of the microorganism (Klebsiella pneumoniae; BIT 2.5 ppm, 72 h) | growth of the microorganism (Klebsiella pneumoniae; BIT 5 ppm, 72 h) | growth of the microorganism (Klebsiella pneumoniae; BIT 7.5 ppm, 72 h) | growth of the microorganism (Klebsiella pneumoniae; BIT 10 ppm, 72 h) | growth of the microorganism (Klebsiella pneumoniae; BIT 15 ppm, 72 h) | growth of the microorganism (Klebsiella pneumoniae; BIT 20 ppm, 72 h)
1.00: Qa/QA (Pseudomonas putida; 48 h) | Synergy index Qa/QA + Qb/QB (Pseudomonas putida; 48 h) | Qa/QA (Escherichia coli; 72 h) | Synergy index Qa/QA + Qb/QB (Escherichia coli; 72 h, method of Kull) | Qa/QA (Klebsiella pneumoniae; 72 h) | Synergy index Qa/QA + Qb/QB (Klebsiella pneumoniae; 72 h)
−: growth of the microorganism (Pseudomonas putida; BIT 60 ppm, 48 h) | growth of the microorganism (Pseudomonas putida; BIT 70 ppm, 48 h) | growth of the microorganism (Pseudomonas putida; BIT 80 ppm, 48 h) | growth of the microorganism (Escherichia coli; BIT 25 ppm, 72 h) | growth of the microorganism (Escherichia coli; BIT 30 ppm, 72 h) | growth of the microorganism (Escherichia coli; BIT 35 ppm, 72 h) | growth of the microorganism (Klebsiella pneumoniae; BIT 25 ppm, 72 h) | growth of the microorganism (Klebsiella pneumoniae; BIT 30 ppm, 72 h) | growth of the microorganism (Klebsiella pneumoniae; BIT 35 ppm, 72 h)
25 ppm: MIC at Total concentration BIT + MIT Qa + Qb (Escherichia coli; 72 h) | MIC at BIT concentration Qa (Escherichia coli; [1]) | MIC value (Escherichia coli; used alone, 72 h at 25° C.) | MIC at Total concentration BIT + MIT Qa + Qb (Klebsiella pneumoniae; 72 h) | MIC at BIT concentration Qa (Klebsiella pneumoniae; [1]) | MIC value (Klebsiella pneumoniae; used alone, 72 h at 25° C.)
